pIC50: −log10 of the molar value. Structures can show the parent of a compound that is named as a salt.
Experiments:
IRAK-1 = IRAK-1 (Homo sapiens (Human), UniProt P51617); assay: In vitro IRAK-1 kinase assay; assay type: biochemical; conditions: purified recombinant IRAK-1, 50 uM ATP, 33P peptide phosphorylation
Description: Purified recombinant IRAK-4 protein was incubated with 250 uM synthetic peptide ([…]) in 30 ul of kinase buffer including (20 mM MOPS pH7.2, 25 mM beta glycerol phosphate, 5 mM EGTA, 1 mM sodium orthovanadate, 1 mM DTT, 50 uM ATP, 20 mM MgCl2, 10 uCi γ-^33P, 0.1% BSA) for the indicated time. For purified recombinant IRAK-1 protein kinase assay, 50 uM ATP was used. A 25 ul aliquot of the reaction mixture was transferred on to p81 phosphocellulose squares (Upstate Biotechnology, Lake Placid, N.Y.). The assay squares were washed three times with 0.75% phosphoric acid and once with acetone. Enzyme activity was measured by determining the bound radioactivity by liquid scintillation counting.

IRAK-4 = IRAK-4 (Homo sapiens (Human), UniProt Q9NWZ3); assay: In vitro IRAK-4 kinase assay; assay type: biochemical; conditions: purified recombinant IRAK-4, 50 uM ATP, 33P peptide phosphorylation
Outline: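 Recombinant IRAK-4 or IRAK-1 incubated with 250 uM synthetic peptide in MOPS pH7.2 kinase buffer with 50 uM ATP, 20 mM MgCl2 and γ-33P ATP for the indicated time. Phosphorylated peptide captured on phosphocellulose, washed with phosphoric acid, quantified by scintillation counting.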

Chain of IRAK-4 (Q9NWZ3 whole entry, species assumed): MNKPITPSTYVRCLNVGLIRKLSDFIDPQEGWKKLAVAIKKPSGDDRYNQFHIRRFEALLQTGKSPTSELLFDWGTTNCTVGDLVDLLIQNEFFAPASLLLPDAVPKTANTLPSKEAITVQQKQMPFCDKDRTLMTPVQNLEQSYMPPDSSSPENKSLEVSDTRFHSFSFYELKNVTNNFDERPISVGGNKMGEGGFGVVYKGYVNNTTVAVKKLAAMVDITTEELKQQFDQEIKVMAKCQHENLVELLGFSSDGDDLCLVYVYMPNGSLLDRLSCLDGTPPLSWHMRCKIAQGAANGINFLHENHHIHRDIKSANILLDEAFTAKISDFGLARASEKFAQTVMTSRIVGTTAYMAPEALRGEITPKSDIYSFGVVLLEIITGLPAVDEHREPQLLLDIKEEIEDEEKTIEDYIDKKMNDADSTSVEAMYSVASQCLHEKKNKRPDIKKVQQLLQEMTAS
Chain of IRAK-1 (P51617 whole entry, species assumed): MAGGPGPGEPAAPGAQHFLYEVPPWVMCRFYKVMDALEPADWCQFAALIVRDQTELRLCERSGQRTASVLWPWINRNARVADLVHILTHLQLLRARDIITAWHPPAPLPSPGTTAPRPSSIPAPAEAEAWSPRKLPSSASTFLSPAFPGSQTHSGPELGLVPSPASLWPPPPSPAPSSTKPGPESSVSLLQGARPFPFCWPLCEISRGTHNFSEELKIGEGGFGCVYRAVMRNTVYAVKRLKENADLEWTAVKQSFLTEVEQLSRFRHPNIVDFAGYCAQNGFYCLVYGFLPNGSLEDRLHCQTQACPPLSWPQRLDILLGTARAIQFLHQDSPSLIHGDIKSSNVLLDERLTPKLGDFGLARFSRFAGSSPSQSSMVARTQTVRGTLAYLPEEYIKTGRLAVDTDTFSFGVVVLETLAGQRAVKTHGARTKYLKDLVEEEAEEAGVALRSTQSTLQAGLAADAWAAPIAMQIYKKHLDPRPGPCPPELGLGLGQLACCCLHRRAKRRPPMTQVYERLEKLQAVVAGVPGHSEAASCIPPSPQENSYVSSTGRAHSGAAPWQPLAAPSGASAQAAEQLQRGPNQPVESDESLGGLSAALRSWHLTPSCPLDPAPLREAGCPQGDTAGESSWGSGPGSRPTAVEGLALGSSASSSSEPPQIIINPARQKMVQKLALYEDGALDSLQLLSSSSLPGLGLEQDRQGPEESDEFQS

pIC50 (IRAK-1)	pIC50 (IRAK-4)	Molecule
6.77	7.96	O=C(Nc1cc2cccnc2cc1O[C@H]1CC[C@H](O)CC1)c1csc2cncnc12
6.33		2-(cis-2-amino-cyclohexylamino)-thieno[3,2-d]pyrimidine-7-carboxylic acid (2,4-dimethoxy-phenyl)-amide [Example 26]
6.07	7.92	NCC1CCN(c2cc3ncccc3cc2NC(=O)c2csc3cncnc23)CC1 [Example 14, hydrochloride]
6.19	7.62	O=C(Nc1cc(Cl)ccc1N1CCCCC1)c1cnn2cc(O)cnc12 [Example 20, 6-Hydroxy-pyrazolo[1,5-a]pyrimidine-3-carboxylic acid (5-chloro-2-piperidin-1-yl-phenyl)-amide]
6.52	7.54	COc1cc2ncccc2cc1NC(=O)c1csc2cnc(N(C)CCO)nc12 [Example 24]
6.51	7.28	CN(C)CC1CCN(c2ccc(Cl)cc2NC(=O)c2cnn3cc(O)cnc23)CC1 [Example 37, 6-Hydroxy-pyrazolo[1,5-alpha]pyrimidine-3-carboxylic acid [5-chloro-2-(4-dimethyl-aminomethyl-piperidin-1-yl)-phenyl]-amide]
6.05	7.12	CC(O)C1CCN(c2ccc(Cl)cc2NC(=O)c2cnn3cccnc23)C1 (stereo not drawn) [Example 44, Pyrazolo[1,{tildeover (5)}-alpha] pyrimidine-3-carboxylic acid {5-chloro-2-[3-(1-hydroxy-ethyl)-pyrrolidin-1-yl]-phenyl}-amide]
6.22	7.09	COc1cc2ncccc2cc1NC(=O)c1csc2cnc(NCC(O)CO)nc12 (stereo not drawn) [Example 47, 2-(2,3-Dihydroxy-propylamino)-thieno[3,2-d]pyrimidine-7-carboxylic acid (7-methoxy-quinolin-6-yl)-amide]
6.15	7.00	O=C(Nc1cc(Cl)ccc1N1CCC(CO)CC1)c1csc2cncnc12 [Example 49, Thieno[3,2-d]pyrimidine-7-carboxylic acid [5-chloro-2-(4-hydroxymethyl-piperidin-1-yl)-phenyl]-amide]
6.90	6.83	O=C(Nc1cc(Cl)ccc1O[C@H]1CC[C@@H](O)CC1)c1csc2cncnc12 [Example 62, Thieno[3,2-d]pyrimidine-7-carboxylic acid [5-chloro-2-(4-hydroxy-cyclohexyloxy)-phenyl]-amide]
	5.08	COc1ccc(CCCO)cc1NC(=O)c1cnn2cccnc12 [Example 176, Pyrazolo[1,5-alpha]pyrimidine-3-carboxylic acid [5-(3-hydroxy-propyl)-2-methoxy-phenyl]-amide]
	5.06	COc1cc(CO)ccc1NC(=O)c1cnn2cccnc12 [Example 177, Pyrazolo[1,5-alpha]pyrimidine-3-carboxylic acid (4-hydroxymethyl-2-methoxy-phenyl)-amide]
	5.03	O=C(Nc1cc(Cl)ccc1OC1CCC(O)CC1)c1cnn2cc(CCCO)cnc12 (stereo not drawn) [Example 178, 6-(3-Hydroxy-propyl)-pyrazolo[1,5-alpha]pyrimidine-3-carboxylic acid [5-chloro-2-(4-hydroxy-cyclohexyloxy)-phenyl]-amide]
	5.30	O=C(Nc1cc(Cl)ccc1OCCO)c1cnn2cccnc12 [Example 179, Pyrazolo[1,5-alpha]pyrimidine-3-carboxylic acid [5-chloro-2-(2-hydroxy-ethoxy)-phenyl]-amide]

Molecule	pIC50 (IRAK-1)	pIC50 (IRAK-4)
O=C(Nc1cc2cccnc2cc1O[C@@H]1CC[C@@H](O)C1)c1csc2cncnc12 (stereo in doubt) [hydrochloride]	6.61	7.82
CC(C)(CCO)Oc1cc2ncccc2cc1NC(=O)c1csc2cncnc12 [Example 35, Thieno[3,2-d]pyrimidine-7-carboxylic acid [7-(3-hydroxy-1,1-dimethyl-propoxy)-quinolin-6-yl]-amide hydrochloride]	6.44	7.31
